Test [1] concerns β-cells from dissociated adult primary human islets. As to the kind of experiment: Human β-cell proliferation assay, EdU incorporation, dissociated islets. In kind it is cell-based. The settings on record: for human β-cell proliferation (EdU incorporation), in words: dispersed human islets; for effect of co-treatment on human β-cell proliferation induced by GNF4877: GNF4877 2 μM, FK506 12 nM to 1 μM. The procedure:
(§1) Rat or human β-cell proliferation assays were performed using dissociated primary rat or human islets. Islets were treated with the indicated compounds in the presence of EdU for 4 days before fixing and staining. […] For intact islet assays, primary human islets were treated for 7 or 8 days (as indicated in the legend). Rat dissociated islets were cultured in RPMI medium containing 10% FBS and human dissociated islets were cultured in PIM-S media (Prodo laboratories) with 10% human […].

The test system of test [2] is adult rat primary β-cells. As to the kind of experiment: Rat β-cell proliferation assay, EdU incorporation, dissociated islets. The test is classed as cell-based. The settings on record: for rat β-cell proliferation (EdU incorporation), in words: dispersed rat islets; for β-cell proliferation in combination with GNF4877: sub-EC50 GNF4877, Figs 7a,d (human and rat β-cells); for primary rat β-cell proliferation, combination of Chiron99021 with TG003: 4 days. Here is the method:
as §1

For the next test, the target named is Gsk3b (Homo sapiens, UniProt P49841). As to the kind of experiment: Gsk3b biochemical kinase assay.
The test system of test [3] is β-catenin nuclear localization in primary rat islets. The test can be described thus: β-Catenin nuclear translocation. In kind it is cell-based. The procedure:
At the end of the treatment, cells were fixed with 4% paraformaldehyde, blocked and permeabilized, and stained by standard immunofluorescence techniques for β-catenin (Cell signaling, #9562L; dilution 1:500), NFATc1 (Santa Cruz, rabbit polyclonal, SC-7294; dilution 1:200) or NFAT3c (Santa Cruz, SC-8321; dilution 1:200) and nuclear DNA was stained with DAPI (Molecular Probes; dilution 1:1,000). EdU incorporation was measured by click reaction with AlexaFluor-647-azide (Invitrogen). Plates were imaged with confocal microscope and analysed by Metamorph (Molecular Devices).

For the next test, the system named is rat islet cells. The test can be described thus: eFluor670 vital dye dilution (cell division). In kind it is cell-based. The settings on record: 5 days treatment. An excerpt:
The extent of proliferation of human islet cells was too low to be detected with this method, consistent with the lower level of EdU incorporation induced in human islets.

The target in another test is T1, Dyrk1a (Homo sapiens, UniProt Q13627).
T1 construct: purchased Ambit KINOMEscan
As to the kind of experiment: Dyrk1a kinase activity, biochemical assay.

“Also recorded” adds a separate entry of the source. Bounds are passed on as bounds.

These results are taken from article PMC4639830, “Inhibition of DYRK1A and GSK3B induces human β-cell proliferation” (Nature Communications, 2015).

Sequence of Gsk3b (P49841 whole entry, species assumed): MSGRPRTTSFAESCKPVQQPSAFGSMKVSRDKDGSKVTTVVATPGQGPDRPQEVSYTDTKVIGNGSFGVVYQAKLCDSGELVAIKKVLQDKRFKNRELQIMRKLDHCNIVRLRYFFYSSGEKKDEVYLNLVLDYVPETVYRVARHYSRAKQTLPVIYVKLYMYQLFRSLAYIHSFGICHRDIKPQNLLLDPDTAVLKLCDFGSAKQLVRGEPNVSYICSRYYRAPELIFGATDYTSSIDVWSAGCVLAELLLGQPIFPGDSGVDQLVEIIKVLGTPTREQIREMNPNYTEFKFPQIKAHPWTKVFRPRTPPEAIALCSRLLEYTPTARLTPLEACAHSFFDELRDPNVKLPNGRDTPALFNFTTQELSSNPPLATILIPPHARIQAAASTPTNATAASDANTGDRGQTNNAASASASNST

In the case of `O=C1Cc2c([nH]c3ccc(Br)cc23)-c2ncccc2N1` [1-Akp], in test [1], the “human β-cell proliferation (EdU incorporation), in words” value (“human β-cell proliferation … in words” for short) was “without any significant effects on human β-cell proliferation”. The “rat β-cell proliferation (EdU incorporation), in words” value (“rat β-cell proliferation … in words” below) in test [2] was “significantly lower extent than GNF7156 and GNF4877”.

For `Nc1ncnc2c1c(I)cn2[C@@H]1O[C@H](CO)[C@@H](O)[C@H]1O` [5-IT], in test [1], the “human β-cell proliferation … in words” value is “induced β-cell proliferation”. Also, in test [2], the “rat β-cell proliferation … in words” value is reported as “induced β-cell proliferation”.

In the case of `COC(=O)C1=C(C)NC(C)=C([N+](=O)[O-])C1c1ccccc1C(F)(F)F` (stereo not drawn) [Bay K8644], the “β-cell proliferation in combination with GNF4877” value in test [2] is recorded as “showed additive activity with GNF4877”.

`Cc1cnc(-c2cnc(NCCNc3ccc(C#N)cn3)nc2-c2ccc(Cl)cc2Cl)[nH]1` [Chiron99021]: in test [1], the “human β-cell proliferation … in words” value was “without any significant effects on human β-cell proliferation”. In addition, in test [2], the “primary rat β-cell proliferation, combination of Chiron99021 with TG003” value is given as “additive induction of primary rat β-cell proliferation”; the “rat β-cell proliferation … in words” value was “significantly lower extent than GNF7156 and GNF4877”.

On to `C=CC[C@@H]1/C=C(\C)C[C@H](C)C[C@H](OC)[C@H]2O[C@@](O)(C(=O)C(=O)N3CCCC[C@H]3C(=O)O[C@H](/C(C)=C/[C@@H]3CC[C@@H](O)[C@H](OC)C3)[C@H](C)[C@@H](O)CC1=O)[C@H](C)C[C@@H]2OC` [FK506], for which the “effect of co-treatment on human β-cell proliferation induced by GNF4877” value in test [1] is given as “reduced by co-treatment”.

One may read the IC50 as the point on the concentration scale where inhibition reaches its midpoint. Read a high IC50 as a need for much substance. As for `Nc1ncc(-c2ccccc2)nc1C(=O)Nc1ccccc1N1CCC(C(=O)O)CC1` [GNF6324], the “potency on Gsk3b, in words” value at Gsk3b is listed as “retained similar potency to GNF7156 on Gsk3b”. Also, the β-catenin nuclear translocation entry in test [3] is on record as “capable of inducing nuclear localization of β-catenin”. The “human β-cell proliferation … in words” value in test [1] is “completely inactive”. The “eFluor670 staining intensity relative to control” value in the test on rat islet cells was “nor cause a decrease in eFluor670 staining”. This compound also showed an IC50 against Dyrk1a above 50 µM. Further, in test [2], the “rat β-cell proliferation … in words” value was “completely inactive; also recorded: did not induce EdU incorporation in rat β-cells”.

On to `[Cl-].[Li+]` [LiCl], for which the “human β-cell proliferation … in words” value in test [1] is on record as “without any significant effects on human β-cell proliferation”. In addition, in test [2], the “rat β-cell proliferation … in words” value is “significantly lower extent than GNF7156 and GNF4877”.

For `CCN1/C(=C/C(C)=O)Sc2ccc(OC)cc21` [TG003], in test [1], the “human β-cell proliferation … in words” value is listed as “induced β-cell proliferation”. Moreover, in test [2], the “primary rat β-cell proliferation, combination of Chiron99021 with TG003” value is listed as “additive induction of primary rat β-cell proliferation” and the “rat β-cell proliferation … in words” value is reported as “induced β-cell proliferation”.

Take `COc1ccc(Cl)cc1C(=O)NCCc1ccc(S(=O)(=O)NC(=O)NC2CCCCC2)cc1` [glibenclamide]: the “β-cell proliferation in combination with GNF4877” value in test [2] was “showed additive activity with GNF4877”.

As for `COc1ccc2c(c1)[nH]c1c(C)nccc12` [harmine], in test [1], the “human β-cell proliferation … in words” value is on record as “induced β-cell proliferation”. Besides, in test [2], the “rat β-cell proliferation … in words” value is recorded as “induced β-cell proliferation”.

Turning to cyclosporin A [CsA], the “effect of co-treatment on human β-cell proliferation induced by GNF4877” value in test [1] is recorded as “reduced by co-treatment”.
